Results on 22 compounds are retold here after US10494376B2, “Tetrahydroisoquinoline derived PRMT5-inhibitors” (CTXT PTY LTD, priority 2014, dated 2019).

Assay [1] concerns the target Full-length PRMT5 enzyme (NCBI Reference sequence NP_006100.2) co-expressed with His6-MEP50 (Homo sapiens (Human), UniProt O14744). Description: Revised PRMT5 Biochemical Assay. The conditions noted are these: 1 μM peptide substrate, 1 μM S-Adenosyl methionine, 4 hours at 37 degree Celsius, Transcreener EPIGEN fluorescence polarisation. A digest of the protocol: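 Full-length PRMT5 co-expressed with His6-MEP50 in insect cells (15 ng/reaction) was run with 1 μM H4-derived peptide and 1 μM SAM in PBS, 0.01% Tween-20, 0.01% albumin and 1 mM DTT for 4 h at 37 °C. Product was read by Transcreener EPIGEN fluorescence polarisation, and IC50 came from a 4-parameter fit.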
(Fluorescence polarisation rises when a labelled molecule tumbles more slowly, as on binding a larger partner.)

Assay [2] relates to symmetrical dimethylation of arginine (Di-Methyl Histone H4 Arginine 3) in cell line TE11. Description: Revised PRMT5 Biomarker Assay (Di-Methyl Histone H4 Arginine 3 immunofluorescence). The class given is cell-based. As to conditions: Homo sapiens, TE-11, TE11 cells, 72 hours. Here is the method:
Compounds of the invention may be tested for potency to inhibit symmetrical dimethylation of arginine in the following assay:
The cell line TE11 was seeded at a density of 6,000 cells per well in 96 well optical quality tissue culture plates in DME medium and 10% foetal bovine serum, and allowed to adhere for 5 hours under standard culture conditions (37 degree Celsius, 5% CO2). […] After incubation for 72 hours, the cells were fixed with 3.7% formaldehyde in PBS for 30 minutes at room temperature, washed with phosphate buffer saline and blocked with Odyssey blocking buffer (LI-COR, Lincoln, Nebr.). Rabbit anti-Di-Methyl Histone H4 Arginine 3 specific antibody (Epigentek) in Odyssey blocking buffer was added and incubated for 14 hours at 4 degree Celsius. […] Alternatively, the plates were imaged on a PerkinElmer Phenix high content imaging platform. […] The resulting mean intensity per cell was directly converted to percent inhibition as outlined above (IC50, imager based).

Where [3] appears, read: PerkinElmer Envision fluorescence intensity, corrected for Hoechst 33342, read-out: IC50 - plate-reader based.

Where a name gives a salt, the structure may show the parent alone. Read-outs that look alike come from different tables or passages of the source.

Full-length PRMT5 enzyme (NCBI Reference sequence NP_006100.2) co-expressed with His6-MEP50, sequence (O14744 whole entry): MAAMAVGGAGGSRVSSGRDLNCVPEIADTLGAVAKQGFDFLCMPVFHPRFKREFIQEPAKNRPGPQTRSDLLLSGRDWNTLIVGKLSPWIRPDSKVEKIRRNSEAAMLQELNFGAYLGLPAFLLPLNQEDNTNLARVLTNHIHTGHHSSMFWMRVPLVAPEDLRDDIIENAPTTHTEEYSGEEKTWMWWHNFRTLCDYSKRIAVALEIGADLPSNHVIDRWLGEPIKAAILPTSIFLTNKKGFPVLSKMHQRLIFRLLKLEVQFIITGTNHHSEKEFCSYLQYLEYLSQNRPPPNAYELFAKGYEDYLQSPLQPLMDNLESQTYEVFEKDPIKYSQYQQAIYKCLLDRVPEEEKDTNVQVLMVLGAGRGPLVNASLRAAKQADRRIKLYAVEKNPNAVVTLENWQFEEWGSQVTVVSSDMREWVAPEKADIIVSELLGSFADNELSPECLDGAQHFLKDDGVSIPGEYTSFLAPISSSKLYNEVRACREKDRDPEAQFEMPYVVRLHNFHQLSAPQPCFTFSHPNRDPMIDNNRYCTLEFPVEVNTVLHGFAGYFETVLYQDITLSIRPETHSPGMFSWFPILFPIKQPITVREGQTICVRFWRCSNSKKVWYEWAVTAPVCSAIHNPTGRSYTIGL
Full-length PRMT5 enzyme (NCBI Reference sequence NP_006100.2) co-expressed with His6-MEP50, sequence (Q9BQA1 whole entry partner): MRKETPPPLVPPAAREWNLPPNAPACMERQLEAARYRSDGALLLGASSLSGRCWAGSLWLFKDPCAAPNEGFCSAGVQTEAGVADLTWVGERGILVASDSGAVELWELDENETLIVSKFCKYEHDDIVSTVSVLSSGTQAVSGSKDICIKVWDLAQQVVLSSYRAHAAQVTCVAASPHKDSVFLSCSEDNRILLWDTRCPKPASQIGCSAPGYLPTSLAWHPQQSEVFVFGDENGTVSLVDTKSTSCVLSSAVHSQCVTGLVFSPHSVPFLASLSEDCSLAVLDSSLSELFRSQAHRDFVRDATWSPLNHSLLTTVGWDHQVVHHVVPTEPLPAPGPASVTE

What is called IC50 is the concentration that gives 50% inhibition. `O=C(NC[C@@H](O)[C@@H]1Cc2ccccc2CN1)c1ccccc1` [Example 3, N-((R)-2-Hydroxy-2-((S)-1,2,3,4-tetrahydroisoquinolin-3-yl)ethyl)benzamide]: the IC50 in assay [1] was 8360 nM; in assay [2] (setting [3]), 1460 nM.
In the case of `CCOc1ccccc1C(=O)NC[C@@H](O)[C@@H]1Cc2ccccc2CN1` [Example 8, 2-Ethoxy-N-((R)-2-hydroxy-2-((S)-1,2,3,4-tetrahydroisoquinolin-3-yl)ethyl)benzamide], the results for the IC50 in assay [1] and in assay [2] (setting [3]) were 16500 nM and 2320 nM, respectively.
On to `O=C(NC[C@@H](O)[C@@H]1Cc2ccccc2CN1)c1ccc(C(=O)N2CCOCC2)cc1F` [Example 15, 2-Fluoro-N-((R)-2-hydroxy-2-((S)-1,2,3,4-tetrahydroisoquinolin-3-yl)ethyl)-4-(morpholine-4-carbonyl)benzamide], for which the results for the IC50 in assay [1] and in assay [2] (setting [3]) were 383 nM and 23 nM, respectively.
Take `O=C(NC[C@@H](O)[C@@H]1Cc2ccccc2CN1)c1ccnc(OC2CCNCC2)c1` [Example 21, N-((R)-2-Hydroxy-2-((S)-1,2,3,4-tetrahydroisoquinolin-3-yl)ethyl)-2-(piperidin-4-yloxy)isonicotinamide]: the values for the IC50 in assay [1] and in assay [2] (setting [3]) were 70 nM and 87 nM, respectively.
Regarding `O=C(NC[C@@H](O)[C@@H]1Cc2ccccc2CN1)c1ccnc(OC2CCOCC2)c1` [Example 26, N-((R)-2-Hydroxy-2-((S)-1,2,3,4-tetrahydroisoquinolin-3-yl)ethyl)-2-((tetrahydro-2H-pyran-4-yl)oxy)isonicotinamide bis(2,2,2-trifluoroacetic acid) salt], the IC50 in assay [1] came out at 53 nM; in assay [2] (setting [3]), 15 nM; in assay [2] (PerkinElmer Phenix high content imaging, mean intensity per cell, read-out: IC50 - image based) it was 3 nM.
Regarding `O=C(NC[C@@H](O)[C@@H]1Cc2ccccc2CN1)c1ccc(C(=O)NC2CCS(=O)(=O)CC2)cc1` [Example 95, N^1-(1,1-Dioxidotetrahydro-2H-thiopyran-4-yl)-N^4-((R)-2-hydroxy-2-((S)-1,2,3,4-tetrahydroisoquinolin-3-yl)ethyl)terephthalamide], in assay [1], the concentration for half-maximal inhibition (IC50) is 9710 nM.
`O=C(NC[C@@H](O)[C@@H]1Cc2ccccc2CN1)c1ccc(C(=O)N2Cc3cccnc3C2)cc1` [Example 96, 4-(6,7-Dihydro-5H-pyrrolo[3,4-b]pyridine-6-carbonyl)-N-((R)-2-hydroxy-2-((S)-1,2,3,4-tetrahydroisoquinolin-3-yl)ethyl)benzamide] yielded an IC50 in assay [1] of 1380 nM.
As to `CC(C)NC(=O)c1ccc(C(=O)NC[C@@H](O)[C@@H]2Cc3ccccc3CN2)cc1` [Example 97, N^1-((R)-2-Hydroxy-2-((S)-1,2,3,4-tetrahydroisoquinolin-3-yl)ethyl)-N^4-isopropylterephthalamide], the IC50 in assay [1] amounted to 18700 nM.
The compound `O=C(NC[C@@H](O)[C@@H]1Cc2ccccc2CN1)c1ccc(Cl)nc1` [Example 98, 6-Chloro-N—((R)-2-hydroxy-2-((S)-1,2,3,4-tetrahydroisoquinolin-3-yl)ethyl)nicotinamide hydrochloride] showed an IC50 in assay [1] of 230 nM.
Compound `O=C(NC[C@@H](O)[C@@H]1Cc2ccccc2CN1)c1ccc(OC2CCNCC2)nc1` [Example 99, N—((R)-2-Hydroxy-2-((S)-1,2,3,4-tetrahydroisoquinolin-3-yl)ethyl)-6-(piperidin-4-yloxy)nicotinamide trihydrochloride] displayed an IC50 in assay [1] of 127 nM.
Regarding `O=C(NC[C@@H](O)[C@@H]1Cc2ccccc2CN1)c1cc(NC2COC2)ncn1` [Example 107, N—((R)-2-Hydroxy-2-((S)-1,2,3,4-tetrahydroisoquinolin-3-yl)ethyl)-6-(oxetan-3-ylamino)pyrimidine-4-carboxamide], the IC50 in assay [1] was 546 nM.
`CC(NC(=O)c1ccc(C(=O)N2CCOCC2)cc1)[C@@H](O)[C@@H]1Cc2ccccc2CN1` (stereo partly drawn) [Example 109, N-((1R)-1-Hydroxy-1-((S)-1,2,3,4-tetrahydroisoquinolin-3-yl)propan-2-yl)-4-(morpholine-4-carbonyl)benzamide hydrochloride] displayed an IC50 in assay [1] of 688 nM.
With `CC(NC(=O)c1ccc(C(=O)N2CCOCC2)cc1)[C@H](O)[C@@H]1Cc2ccccc2CN1` (stereo partly drawn) [Example 110, N-((1S)-1-Hydroxy-1-((S)-1,2,3,4-tetrahydroisoquinolin-3-yl)propan-2-yl)-4-(morpholine-4-carbonyl)benzamide hydrochloride], in assay [1], the IC50 came out at 1490 nM.
Take `Nc1ccc(C(=O)NC[C@@H](O)[C@@H]2Cc3ccccc3CN2)cn1` [Example 111, 6-Amino-N-((R)-2-hydroxy-2-((S)-1,2,3,4-tetrahydroisoquinolin-3-yl)ethyl)nicotinamide dihydrochloride]: the IC50 in assay [1] worked out at 4670 nM.
On the same count and under the same terms, the value for `O=C(NC[C@@H](O)[C@@H]1Cc2ccccc2CN1)c1ccc2[nH]ncc2c1` [Example 112, N-((R)-2-Hydroxy-2-((S)-1,2,3,4-tetrahydroisoquinolin-3-yl)ethyl)-1H-indazole-5-carboxamide dihydrochloride] was 2310 nM.
On to `O=C(NC[C@@H](O)[C@@H]1Cc2ccccc2CN1)c1ccc2[nH]nnc2c1` [Example 114, N-((R)-2-Hydroxy-2-((S)-1,2,3,4-tetrahydroisoquinolin-3-yl)ethyl)-1H-benzo[d][1,2,3]triazole-5-carboxamide dihydrochloride], for which it took 5490 nM to reach half-maximal inhibition in assay [1] (IC50).
In assay [1], `O=C(NC[C@@H](O)[C@@H]1Cc2ccccc2CN1)c1cc(Cl)nc(OC2COC2)c1` [Example 115, 2-Chloro-N-((R)-2-hydroxy-2-((S)-1,2,3,4-tetrahydroisoquinolin-3-yl)ethyl)-6-(oxetan-3-yloxy)isonicotinamide dihydrochloride] returned an IC50 of 2830 nM.
The same measure, in the same setting: the same measure for `CC(=O)N1CCC(Oc2cc(C(=O)NC[C@@H](O)[C@@H]3Cc4ccccc4CN3)cnn2)CC1` [Example 116, 6-((1-Acetylpiperidin-4-yl)oxy)-N-((R)-2-hydroxy-2-((S)-1,2,3,4-tetrahydroisoquinolin-3-yl)ethyl)pyridazine-4-carboxamide dihydrochloride]: 1110 nM; for `O=C(NC[C@@H](O)[C@@H]1Cc2ccccc2CN1)c1cccc2c1ncn2C1CCOCC1` [Example 117, N-((R)-2-Hydroxy-2-((S)-1,2,3,4-tetrahydroisoquinolin-3-yl)ethyl)-1-(tetrahydro-2H-pyran-4-yl)-1H-benzo[d]imidazole-4-carboxamide dihydrochloride]: 487 nM; for `COC(=O)N1CCC(Oc2cncc(C(=O)NC[C@@H](O)[C@@H]3Cc4ccccc4CN3)c2)CC1` [Example 118, Methyl 4-((5-(((R)-2-hydroxy-2-((S)-1,2,3,4-tetrahydroisoquinolin-3-yl)ethyl)carbamoyl)pyridin-3-yl)oxy)piperidine-1-carboxylate dihydrochloride]: 502 nM.
`O=C(NC[C@@H](O)[C@@H]1Cc2ccccc2CN1)c1ccnc(OC2CCN(CC(F)(F)F)CC2)c1` [Example 124, N—((R)-2-Hydroxy-2-((S)-1,2,3,4-tetrahydroisoquinolin-3-yl)ethyl)-2-((1-(2,2,2-trifluoroethyl)piperidin-4-yl)oxy)isonicotinamide] yielded an IC50 in assay [1] of 70 nM.
Take `CCOc1cc(C(=O)N2C3CCC2COC3)ccc1C(=O)NC[C@@H](O)[C@@H]1Cc2cc(C)ccc2CN1` [Example 125, 4-(3-Oxa-8-azabicyclo[3.2.1]octane-8-carbonyl)-2-ethoxy-N—((R)-2-hydroxy-2-((S)-6-methyl-1,2,3,4-tetrahydroisoquinolin-3-yl)ethyl)benzamide hydrochloride]: the IC50 in assay [1] turned out to be 232 nM.
